Test results from PubChem BioAssay (NCI).
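Dose response: 5 concentrations. Exposure: 48 h. Format: 96-well plates. Endpoint: linear interpolation; highest concentration if not reached. TGI: total growth inhibition.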

Key:
Assay in all cases: growth of human tumour cells (NCI), 48 h
786-0 renal = system: 786-0 renal
ACHN renal = system: ACHN renal
CCRF-CEM leukemia = system: CCRF-CEM leukemia
LOX IMVI melanoma = system: LOX IMVI melanoma
M14 melanoma = system: M14 melanoma
MDA-MB-231 breast = system: MDA-MB-231 breast
MDA-MB-435 = system: MDA-MB-435
NCI-H226 lung = system: NCI-H226 lung
NCI-H23 lung = system: NCI-H23 lung
NCI/ADR-RES ovarian = system: NCI/ADR-RES ovarian
OVCAR-3 ovarian = system: OVCAR-3 ovarian
PC-3 prostate = system: PC-3 prostate
SK-MEL-5 melanoma = system: SK-MEL-5 melanoma
SK-OV-3 ovarian = system: SK-OV-3 ovarian
SNB-19 CNS = system: SNB-19 CNS
T-47D breast = system: T-47D breast
UACC-62 melanoma = system: UACC-62 melanoma

| Structure (SMILES) | TGI (786-0 renal) [µM] | TGI (ACHN renal) [µM] | TGI (CCRF-CEM leukemia) [µM] | TGI (LOX IMVI melanoma) [µM] | TGI (M14 melanoma) [µM] | TGI (MDA-MB-231 breast) [µM] | TGI (MDA-MB-435) [µM] | TGI (NCI-H226 lung) [µM] | TGI (NCI-H23 lung) [µM] | TGI (NCI/ADR-RES ovarian) [µM] | TGI (OVCAR-3 ovarian) [µM] | TGI (PC-3 prostate) [µM] | TGI (SK-MEL-5 melanoma) [µM] | TGI (SK-OV-3 ovarian) [µM] | TGI (SNB-19 CNS) [µM] | TGI (T-47D breast) [µM] | TGI (UACC-62 melanoma) [µM] |
| --- | --- | --- | --- | --- | --- | --- | --- | --- | --- | --- | --- | --- | --- | --- | --- | --- | --- |
| O=C(Nc1nn[nH]n1)c1nc(-c2ccccc2)cc(=O)[nH]1 | > 100 | > 100 | > 100 | > 100 | > 100 | > 100 | > 100 | > 100 | > 100 | > 100 | > 100 | > 100 | > 100 | > 100 | > 100 | > 100 | > 100 |
| Cc1ccccc1NC(=O)CC(=O)NNC(Sc1ccccc1)c1cc(N=Nc2ccc(Br)cc2)ccc1O (stereo not drawn) | > 10 | > 10 | > 10 | 9.11 | 2.63 | 6.05 | > 10 | > 10 | > 10 | 9.08 | 4.91 | > 10 | 3.42 | > 10 | > 10 | > 10 | 8.65 |
| CC1=CCC[C@H]2[C@](C)(CC3=CC(=O)C(SCC(C)C)=CC3=O)[C@@H](C)CC[C@]12C | 27.2 | 29.7 | 3.72 | 24.6 | 34.7 | > 64 | 32.5 | 28.9 | 25.5 | 38.8 | 42.1 | 30.9 | 31.5 | 35.1 | 34.6 | 12.9 | 28.8 |
| CC1(C)Oc2ccc3c(=O)cc(-c4ccccc4)oc3c2C1C(=O)O (stereo not drawn) | > 100 |  | > 100 |  | > 100 | > 100 | > 100 | > 100 | > 100 | > 100 | > 100 | > 100 | > 100 | > 100 |  | > 100 | > 100 |
| COc1cc2nc(-c3cccs3)nc(Nc3cccc(Cl)c3)c2cc1OC | > 100 | > 100 | > 100 | > 100 | > 100 | > 100 | > 100 | > 100 | > 100 | > 100 | > 100 | 56.8 | > 100 | > 100 | > 100 | > 100 | > 100 |
| O=C1NC(N2CCOCC2)=N/C1=C\c1ccc(O)cc1 | > 100 | > 100 | > 100 | > 100 | > 100 | > 100 | > 100 | > 100 | > 100 | > 100 | > 100 | > 100 |  | > 100 | > 100 | > 100 | > 100 |
| COC1=CC(=O)N(C)C(O)C1(C#N)OC1OC(CO)C(O)C(O)C1O (stereo not drawn) | > 100 | > 100 | > 10 | > 100 | > 100 | > 100 | > 100 | > 100 | > 100 | > 100 | > 100 | > 100 | > 100 | > 100 | > 100 | > 100 | > 100 |
| CC(C)Oc1cccc(N2C(Nc3ccccc3)=Nc3ccncc3S2(=O)=O)c1 | 52.5 | 84.8 | 62.4 | 38.5 | > 100 | > 100 | 57 | 83.2 | > 100 | 53.3 | 52.4 | 45.6 | 26.6 | > 100 | > 100 | 90.1 | > 100 |
| Cc1ccc(S(=O)(=O)NC(=O)C2=C3SCCN3C(=O)N(S(=O)(=O)c3ccc(C)cc3)C2c2ccccc2)cc1 (stereo not drawn) | > 100 | > 100 | 60.5 | > 100 | > 100 | > 100 | 61 | > 100 | > 100 | > 100 | 59.1 | > 100 |  | 66.8 | > 100 | > 100 | > 100 |
| Cc1nc(-c2cc3ccccc3oc2=O)cs1 | > 100 | > 100 | > 100 | > 100 | > 100 | 72.6 | > 100 | > 100 |  | > 100 |  | > 100 | > 100 | > 100 | > 100 | > 100 | > 100 |
| CC(=O)OCC1OC(n2c(C)c(C)c(C)c(C#N)c2=S)C(OC(C)=O)C(OC(C)=O)C1OC(C)=O (stereo not drawn) | 93.1 | > 100 | > 100 | > 100 | > 100 | > 100 | > 100 | > 100 | > 100 | > 100 | > 100 | > 100 | > 100 | 80.9 | > 100 | > 100 | > 100 |
| O=C1/C(=C/c2cccc3ccccc23)CCc2ccc([N+](=O)[O-])cc21 | 65.5 | > 100 | > 100 | > 100 | > 100 | > 100 | 22.6 | > 100 | > 100 | > 100 | 12.7 | > 100 |  | 77.8 | 43.7 | > 100 | 65.8 |
| NCCSCCC(=O)O | > 100 | > 56.1 | > 100 | > 93.7 | > 100 | > 100 | > 100 | > 100 | > 62.7 | > 100 | > 100 | > 100 | > 85.3 | > 100 | > 100 | > 84.2 | > 70.9 |
| CC(=O)OC[C@H]1On2nnnc2[C@H](OC(C)=O)[C@@H](OC(C)=O)[C@@H]1OC(C)=O | > 100 | > 100 | > 100 | > 100 |  | > 100 | > 100 | > 100 | > 100 | > 100 | > 100 | > 100 | > 100 | > 100 |  | > 100 | > 100 |
| O=C(O)c1ccccc1C1c2ccccc2Oc2ccccc21 | > 100 | > 100 | > 100 | > 100 | > 100 | > 100 | > 100 | 65.7 | > 100 | > 100 | 90.1 | > 100 | > 100 |  | > 100 | > 100 | > 100 |
| O=C(O)/C=C\C(=O)Nn1c(Cc2ccc(Cl)cc2)n[nH]c1=O | > 100 |  | > 100 |  | > 100 | > 100 | > 100 | > 100 | > 100 | > 100 | > 100 | > 100 | > 100 | > 100 |  | > 100 | > 100 |
| CCOC(=O)c1cc(Br)c(-c2onc(C)c2Br)[nH]1 | 59.3 |  | > 100 | > 100 | > 100 | 45.5 | > 100 | > 100 | > 100 | > 100 | > 100 | > 100 | > 100 | 74.4 | 74.8 | > 100 | > 100 |
| COC(=O)Cn1cnc2c(Cl)nc(Nc3ccccc3)nc21 | > 100 | > 100 | 96.7 | 41.4 | > 100 | > 100 | 79.8 | > 100 |  | > 100 | 50.7 | > 100 | > 100 | > 100 | > 100 | > 100 | 67.2 |
| Oc1ccc(-c2nc3ccccc3s2)cc1 | > 100 | > 100 | > 100 | 45 | > 100 | 63.4 | > 100 | > 100 | 79.1 | > 100 | > 100 | > 100 |  | 86 | > 100 | 70 | > 100 |
| COc1ccc2cc(C(C)C(=O)N3C(=O)OCC3(C)C)ccc2c1 (stereo not drawn) | > 100 | > 100 |  | > 100 | > 100 | > 100 | > 100 | > 100 | > 100 | > 100 | > 100 | > 100 | > 100 | > 100 | > 100 | > 100 | > 100 |
| S=C1SC(=Nc2ccccc2)C(=Nc2ccccc2)N1c1ccc2ccccc2c1 |  |  | > 100 |  | > 100 | > 100 | > 100 | > 100 | > 100 | > 100 | > 100 | > 100 | > 100 | > 100 | > 100 | > 100 | > 100 |
| Cc1ncc(COP(=O)(O)O)c(/C=C2\SC(=S)NC2=O)c1O | > 100 | > 100 |  | > 100 | > 100 | > 100 | > 100 | > 100 | > 100 | > 100 | > 100 | > 100 | > 100 | > 100 | > 100 | > 100 | > 100 |
| Cc1nc(Nc2ccccc2Cl)sc1C(=O)CC(=O)C(N)=O | > 100 | > 100 | > 100 | > 100 | > 100 | > 100 | > 100 | > 100 | > 100 | > 100 | > 100 | > 100 |  | > 100 | > 100 | > 100 | > 100 |
| COc1nc(C#CC2CCCCC2)nc(OC)n1 | 7.77 | 17.5 | 11.7 | 8.69 | 10.6 | 13.2 | 10.1 |  | 8.6 | 4.59 | 8.97 | 16.3 | 15.3 | > 100 | 43.6 | > 100 | 4.38 |
| NC(N)=NC1C(O)C(O)C(O)C(N=C(N)N)C1O (stereo not drawn) | > 100 | > 100 | > 100 | > 100 | > 100 | > 100 | > 100 |  | > 100 | > 100 | > 100 | > 100 | > 100 | > 100 | > 100 | > 100 | > 100 |
| CCOC1=C(c2ccccc2)N2CCCCC2O1 (stereo not drawn) | > 100 | > 100 | > 72.4 | 13.8 | 12.1 | > 48.5 | 16.8 | 32.5 | > 36.4 | > 96.4 | > 44.5 | 22.3 | 4.54 |  | > 100 | 6.82 | 10 |
| CC(C)(C)C1=C(Br)C(O)(C(C)(C)C)OP1(=O)c1ccccc1 (stereo not drawn) | > 100 | > 100 | > 100 | > 100 |  | > 100 | > 100 |  | > 100 | > 100 | > 100 | > 100 | > 100 | > 100 | > 100 | > 100 | > 100 |
| O=C(O)c1cccc(NC(C(=O)c2ccccc2)c2ccccc2)c1 (stereo not drawn) | > 100 | > 100 | > 100 | > 100 | > 100 | > 100 | > 100 |  | > 100 | > 100 | > 100 | > 100 | > 100 | > 100 | > 100 | > 100 | > 100 |
| Cc1cc(S(=O)(=O)/N=C(/NN)Nc2ccc(Cl)cc2)c(S)cc1Cl | 45.6 | 20 | 94 | 30.5 | 34.6 | 84.2 | 25.6 | 43.3 |  | 23.4 | 82.2 | > 100 | 19.2 | 49.5 | 25.3 | 14.8 | 27.4 |
